Reference: patent US8961959B2, “Glucosylceramide synthase inhibitors and therapeutic methods using the same” (The Regents of the University of Michigan, priority 2011, dated 2015)
Entries after “also recorded” stand apart in the source; their conditions may differ.

Key:
[1] = drug distribution studies; cited from earlier work
C57BL/6 mice = test: Organ GlcCer content in C57BL/6 mice after short term i.p. dosing; format: in vivo, mouse; conditions: for change in brain GlcCer levels: 10 mg/kg/day i.p. for 3 days, 12 h after last injection; for fall in brain GlcCer levels: 30 mg/kg q 12 h for 3 days i.p.; for liver and kidney GlcCer levels: i.p. 3 days; for brain GlcCer content, short term dosing: i.p. for 3 days, in words
Experimental: C57BL/6 mice were maintained on regular chow in specific-pathogen-free facilities. All animal studies were performed under the review of the University of Michigan Committee on the Use and Care of Animals and conformed to the National Institutes of Health Guide for the Care and Use of Laboratory Animals. Injection solutions were prepared from inhibitor-ethanol stock solution (100 mM) A portion of the stock solution was evaporated under a stream of N2 gas. Dried eliglustat tartrate (compound 3a) was directly dissolved into 1× phosphate buffered saline. […] The acidic solution was neutralized by mixing 100 μL of 10× phosphate buffered saline with 636.3 μL of water to bring the total volume to one ml. Inhibitor solutions were sterilized by passage through a […]. Inhibitor recovery after filtration was confirmed by UV spectrometry and exceeded 99%. For control injections, phosphate buffered saline containing the same amount of HCl was used. Inhibitors were given to 6 to 8 week old female or male C57BL/6 mice by intraperitoneal injection volume at 1% of body weight.
Lipid extractions of liver, kidney, and brain were performed as previously described (7). Briefly, frozen liver (about 0.5 g), two kidneys (about 0.3 g) and whole brain (about 0.4 g) were individually homogenized in sucrose buffer (250 mM sucrose, pH 7.4, 10 mM HEPES and 1 mM EDTA), at 0.2 g tissue/1 mL of sucrose buffer, with a Tri-R homogenizer. Each 0.8 mL of homogenate was mixed with 2 mL of methanol and 1 mL of chloroform, bath sonicated for 1 min and incubated at room temperature for 1 h. Tissue debris were removed by centrifugation at 2,400×gravity for 30 min. The pellets were re-extracted by mixing with 1 mL of methanol, 0.5 mL of chloroform and 0.4 mL of 0.9% NaCl (chloroform/methanol/0.9% NaCl, 1:2:0.8), incubated at room temperature for 1 h and centrifuged at 2,400×gravity for another 30 min. Two extracts were combined and mixed with 4.5 mL of chloroform and 1.2 mL of 0.9% NaCl (chloroform/methanol/0.9% NaCl, 2:1:0.8). After centrifugation at 800×gravity for 5 min, lower layer was washed with 3 mL of methanol and 2.4 mL of 0.9% NaCl. Second washing was carried with 3 mL of methanol, 2 mL of water and 0.4 mL of 0.9% NaCl followed by a 5 min centrifugation at 800×gravity. The resultant lower phase was collected and dried under a stream of N2 gas.
The analysis of neutral glycosphingolipids from mouse liver, kidney, and brain was processed after alkaline methanolysis. […] lipids were incubated with 2 mL of chloroform and 1 ml of 0.21N NaOH in methanol for 2 h (kidney) or 7.5 h (liver and brain) at RT. The lipid extract was normalized to 0.5 μmol of total phospholipid phosphate (liver and kidney) or 2 μmol of total phospholipid phosphate (brain) for high performance thin layer chromatography analysis. After alkaline methanolysis, the brain lipids were passed through a silica gel column (7). Borate-impregnated thin layer chromatography plates were developed in a two solvent system. Plates were first developed in chloroform/methanol (98:2, v/v). The plates loaded with kidney and liver lipids were then developed in chloroform/methanol/water (64:24:4, v/v/v), and brain lipids were further separated in chloroform/methanol/water (60:30:6, v/v/v). GlcCer levels were quantified by comparison to known standards.

[2] = molecular target: T1, glucosylceramide synthase (GCS) (Canis lupus familiaris, UniProt A0A8I3MXG6); test: GCS activity, broken cell (MDCK cell homogenate) assay; format: biochemical, canine
T1 construct: Madin-Darby canine kidney (MDCK) cell homogenates (120 μg of protein) were incubated; endogenous in cells; host or cells: MDCK (Madin-Darby canine kidney) cell homogenate
T1 sequence (A0A8I3MXG6 1-394): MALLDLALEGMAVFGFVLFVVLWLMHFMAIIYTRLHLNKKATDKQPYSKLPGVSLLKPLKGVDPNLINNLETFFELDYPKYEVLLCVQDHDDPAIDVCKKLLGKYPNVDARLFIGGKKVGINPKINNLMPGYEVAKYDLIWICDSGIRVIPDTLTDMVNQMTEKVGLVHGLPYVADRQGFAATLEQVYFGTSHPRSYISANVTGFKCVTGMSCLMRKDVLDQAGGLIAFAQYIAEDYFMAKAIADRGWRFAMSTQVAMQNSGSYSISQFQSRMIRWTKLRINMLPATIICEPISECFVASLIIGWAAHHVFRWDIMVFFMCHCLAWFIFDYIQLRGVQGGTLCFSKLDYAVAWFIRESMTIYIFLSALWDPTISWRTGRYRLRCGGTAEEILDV
Experimental: Enzyme activity was measured as described previously (9). Madin-Darby canine kidney (MDCK) cell homogenates (120 μg of protein) were incubated with uridine diphosphate-[^3H]glucose (100,000 cpm) and liposomes consisting of 85 μg of octanoylsphingosine, 570 μg of dioleoylphosphatidylcholine, and 100 μg of sodium sulfatide in a 200 μL reaction mixture and kept for 1 h at 37° C.

Compound	transport across the blood brain barrier [1]	change in brain GlcCer levels (C57BL/6 mice)	fall in brain GlcCer levels (C57BL/6 mice)	liver and kidney GlcCer levels (C57BL/6 mice)	liver and kidney GlcCer levels (C57BL/6 mice; listed as eliglustat)	brain GlcCer content, short term dosing (C57BL/6 mice)	brain GlcCer content, short term dosing (C57BL/6 mice; listed as eliglustat tartrate)	IC50 [2] [nM]	inhibition of GCS ([2]; in words)
CCCCCCCC(=O)N[C@H](CN1CCCC1)[C@H](O)c1ccc2c(c1)OCCO2 [Compound 3a, N-((1R,2R)-1-(2,3-dihydrobenzo-[b][1,4]dioxin-6-yl)-1-hydroxy-3-(pyrrolidin-1-yl)propan-2-yl)octanamide, reference compound]	not transported across the blood brain barrier	without changes	without any changes	significantly lowered	lowered	failed to demonstrate any change	an effect not seen	149	
O=C(CC1Cc2ccccc2C1)N[C@H](CN1CCCC1)[C@H](O)c1ccc2c(c1)OCCO2 [Compound 3h, 2-(2,3-dihydro-1H-inden-2-yl)-N-((1R,2R)-1-(2,3-dihydrobenzo[b][1,4]dioxin-6-yl)-1-hydroxy-3-(pyrrolidin-1-yl)propan-2-yl)acetamide]		ten percent decrease	17%			significant dose dependent decrease; also recorded: significantly lowered		27	low nanomolar concentrations
